From paper PMC9313812, “The Pseudo‐Natural Product Rhonin Targets RHOGDI” (Angewandte Chemie (International Ed. in English), 2022)

How the values were obtained:
PDEδ = biological target: T1, PDEδ (Homo sapiens, UniProt O43924); experiment: Competition-based fluorescence polarization with fluorescein-labelled atorvastatin; type: binding; details: selectivity test
T1 construct: GST (N); made in house; host or cells: E. coli Rosetta 2
Procedure: RHOGDI1 displaced liposome -bound RAC1 from the surface of L1 chip with a koff of 0.016 […]
bound RAC1. Calculated rate constants by mono-exponential fitting of RU decays were 0.02 and 0.032 s-1 for RHOGDI1-mediated RAC1 displacement from the liposomes in the presence of 7a and 7d, respectively. (d) Competition-based fluorescence polarization experiments were performed by titration of 7a against 10 nM fluorescein-labelled atorvastatin and GST-PDEδ.
(e) Fluorescence polarization experiment using 10 nM probe 10 and titration of PDEδ.
(1 picture or pasted object on this page, not shown here)
Label-free quantification (LFQ) intensities were logarithmized (log2) and proteins, which were not three times quantified in at least one of the groups, were filtered off. […]
Fluorescence polarization
The binding of probe 10 to RHOGDI1-3 was confirmed by fluorescence polarization experiments. […] The change in fluorescence polarization was monitored at an excitation / emission wavelengths of 535 nm and 593 nm, respectively. […]
To determine the effect of 7a on the binding of RHOGDI1 to non-prenylated RAC1-GDP, fluorescence polarization measurements were performed by titrating 1 µM TAMRA-GDP-bound RAC1 with increasing concentrations of RHOGDI1 in the presence and absence of 50 µM 7a in buffer containing 30 mM Tris-HCl, pH 7.5, 150 mM NaCl, 5 mM MgCl2, 1% DMSO. […]

HEK293T cells = experiment: Cell fractionation: distribution of RHO GTPases; type: cell-based; details: 10 μM
Procedure: centrifugation for 20 min in 20000 x g, supernatants were collected and loaded on a Ni-NTA column (Qiagen, Hilden, Germany). The protein was eluted by passing a buffer containing 300 mM imidazole into the Ni-NTA column. The eluted solution was further purified on an analytical Superdex 75 column (10/300 GL, GE-Healthcare, Uppsala, Sweden) using 20 mM HEPES-NaOH pH 7.4, 150 mM NaCl, 3 mM DTT, 5 mM MgCl2 and 0.5% (w/v) Na-cholate as buffer system. Non-prenylated RAC1 and human RHOGDI1 were prepared from E. coli as a GST recombinant protein as described previously.6
For expression of GST-PDEδ, E. coli RosettaTM2 cells transformed with PDE6D expression plasmid (pGex4T5) were inoculated in TB medium containing 100 μg/ml ampicillin and 30 μg/ml chloramphenicol to a total volume of 10 L. The protein expression in E. coli was induced with 0.2 mM IPTG at OD600 = 1.33. Cells were cultivated overnight at 18 ° C with shaking.
Cells then were pelleted by centrifugation at 4000xg for 20 min at 4 ° C and stored at -20 ° C. […]
NIH/3T3 cells were seeded in a 96 plate (10,000 cell per well/ plate name: Essen Bioscience NO 4379). […] Cell migration was monitored using IncuCyte ZOOM for a period of 48 h. The images were analyzed by the Incucyte Scratch Wound Analysis Software. […]

COC(=O)C1(C(CC(=O)c2ccccc2)c2ccccc2)N=C(c2ccc(Br)cc2)C2C(=O)N(C)C(=O)C21 (centres unmarked) [7a]
Competition with fluorescein-labelled atorvastatin for binding to PDEδ (in words) (PDEδ): does not compete

COC(=O)C1(C(CC(=O)c2cccnc2)c2ccccc2)N=C(c2ccc(Br)cc2)C2C(=O)N(C)C(=O)C21 (centres unmarked) [7l]
Subcellular localization of membrane-bound RHO GTPases (in words) (HEK293T cells): from the plasma membrane to the endoplasmic reticulum (ER) membrane
